According to patent US6884577B2, “Methods for screening compounds for estrogenic activity” (The Regents of the University of California, priority 1993, dated 2005):

What was measured:
[1] = test system: ER activation of AP-1 (Coll73-LUC); experiment: Inhibitor screen: ER transiently transfected with Coll73-LUC in HeLa or HepG2 cells, hormone plus prospective inhibitor; assay type: cell-based
Procedure: (§1) An estrogen receptor (ER) was transiently transfected into either HeLa or HepG2 cells along with an AP-1 responsive reporter gene, Coll73-LUC. The transformed cells were then contacted with antiestrogens or estrogen in combination with prospective inhibitor drugs. […] Luciferase was measured in cell extracts as an indication of AP-1 dependent promoter activity.

[2] = test system: HE15 activation of AP-1 activity; experiment: Inhibitor screen: HE15 (constitutive ER) activation of AP-1 activity; assay type: cell-based; conditions: HeLa cells
Procedure: as §1

[3] = test system: MCF-7 cell; conditions: Braacke et al. 1991; cited from earlier work
[4] = test system: ER at classical ERE; experiment: Reporter genes containing classical EREs (ERE-coll60, ERE-tk) in cells with ER; assay type: cell-based, human
Procedure: FIGS. 2A-2C show antiestrogen stimulation of expression in an intact AP-1 Site, but not at classical EREs. […] Representations, at left, show the human collagenase promoter (shaded) and the consensus AP-1 site. CAT activities were from cells maintained in the absence of hormone or saturating concentrations of ICI 164,384 (ICI, 1 μM), tamoxifen (5 μM) or estradiol ([…]). CAT activity is normalized to a transfection control with the actin promoter driving expression of βHCG. Single representative experiments are shown, error bars represent standard deviation of triplicate hormone treatments.
All reporter genes described below have been modified by digestion with EcoR I and Ndel to remove a AP-I site in the backbone of pUG. Thus, Coll73 and Coll60 are formerly_Coll73 and_Coll60 (Lopez et al. Mol. Cell. Biol. 13:3042-930 (1993)). Coll73-LUC was constructed by cloning a BamHI/Pvull fragment, that spanned the luciferase transcription unit, from pMG3 into coll73, which had been digested with BamHI and SmaI to remove the CAT transcription unit. EREcoll60 and EREcoll73 was prepared by ligation of a consensus ERE ([…], SEQ ID NO:3), into the HindIII site upstream of coll60 and coll73, respectively. All other reporter genes have been previously described (Webb et al. Mol. Endocrinol. 6:157-16725 (1992): and Lopez et al., supra).
Cells were maintained and transfected as previously described in Webb et al., supra. Hormones were added two hours after plating in the following concentrations, estradiol 100 nM, ICI 164,384 1 μM, tamoxifen 5 μM, to ensure saturation of the response. F9 cells were seeded at 30% confluence upon 1.5 cm dishes and transfected overnight by calcium phosphate coprecipitation with 5 μg reporter gene, 1 μg actin β-HCG, and 1 μg of HEO, 300 ng each of c-jun and c-fos expression vectors. The cells were glycerol shocked and refed in growth medium containing hormone or ethanolic vehicle. In transient transfections, optimal amounts of HEO were employed and were as follows: HeLa (5 μg); NIH3T3 (1 μg); HepG2 (1 μg); SHM (300 ng); SY5Y (300 ng); CEF (100 ng); CV-1 (3 μg); MDA453 (3 μg); CHO (100 ng) and F9 (1 μg).
(§2) CAT assays were carried out as described in Webb et al., except that the cells were harvested one to two days after transfection instead of three. CAT activities were defined as the increase in cpm per hour at room temperature (corrected for background) per 100 μl of cell extract, normalized to production of 100 standard units of βHCG, from a co-transfected reporter gene, actin-HCG. Luciferase assays were performed as described by Brasier et al. Methods Enzymol 216:386-97 (1992)) on similar extracts that were used for CAT assays. Light units were defined as the luciferase activity per 100 μl of cell extract per 100 standard units of βHCG. Relative luciferase activities were calculated with respect to the results that were obtained in the absence of ER and hormone, which was set at 1 unit. For the data presented in Table I triplicate points were determined. Standard deviations were less than 20%.
The activity of antiestrogens in the AP-1 pathway was also compared with their activity in the classical pathway. […] A promoter with both an ERE and an AP-1 site (ERE-coll73 FIG. 2C) gave a large estrogen response, but retained some response to antiestrogens. Another control reporter, in which the tk promoter was regulated by a classical ERE (ERE-tk FIG. 2C) was also activated by estrogen, but not by antiestrogens.

[5] = test system: ER at the AP-1 site of the collagenase promoter; experiment: Collagenase promoter reporter in cells that express endogenous ER (Ishikawa, MCF-7, ZR-75-1); assay type: cell-based; conditions: for activation of the collagenase promoter (coll73-CAT) / induction of the collagenase promoter (coll73-LUC): Ishikawa cells; for activation of the collagenase promoter (coll73-CAT): endogenous receptor, FIG. 4A; for induction of the collagenase promoter (coll73-LUC): receptor levels raised by transfection
Procedure: Left panel, coll73-CAT response with endogenous ER contrasted with the response of an ERE regulated reporter, ERE-coll60CAT. Right panel, coll73-LUC response with 3 μg co-transfected expression vector for human ER. Averages of three individual experiments are shown. […] A single representative experiment with triplicate hormone treatments is shown.
(§4) To further explore this phenomenon, and to test whether similar hormone effects could be detected at physiological levels of ER, the expression of the collagenase promoter in cells that express endogenous ER was examined.

[6] = test system: ER at classical ERE, ERC1 cells; experiment: Estrogenic activity screen: CAT reporter gene linked to a classical ERE in ERC1 cells; assay type: cell-based, human; conditions: ICI 164384 with series 4 compounds
Procedure: A library of hydroxystilbene derivatives as shown in FIG. 9 was screened for estrogenic activity in cell culture assays using a CAT reporter gene linked to a classical ERE in ERC1 cells as described in Webb et al., supra. After transient transfection with CAT reporter genes, each hydroxystilbene was added to the cultured ERC 1 cells. ER-regulated response was compared either to treatment with 17β-estradiol as a calibration standard or to treatment with an ethanolic vehicle.
Dose response experiments were performed on the series 4 compounds over a concentration range of 0-100 μM (FIG. 1).

[7] = test system: ER at classical ERE, Ishikawa cells; experiment: ERE-coll60CAT reporter in Ishikawa cells; assay type: cell-based
Description: Left panel, coll73-CAT response with endogenous ER contrasted with the response of an ERE regulated reporter, ERE-coll60CAT. […] Averages of three individual experiments are shown. […] A single representative experiment with triplicate hormone treatments is shown.
as §4

[8] = test system: human ER at the AP-1 site of the collagenase promoter (coll73); experiment: Coll73-LUC luciferase reporter (collagenase promoter with AP-1 site) in cells transfected with human ER expression vector HEO; assay type: cell-based; conditions: for Coll73 Luciferase Activity: relative to no ER; for half maximal dose relative to that for estrogen, induction of coll73-LUC: HeLa cells, 5 μg ER expression vector, FIG. 3B
Procedure: All reporter genes described below have been modified by digestion with EcoR I and Ndel to remove a AP-I site in the backbone of pUG. […] Coll73-LUC was constructed by cloning a BamHI/Pvull fragment, that spanned the luciferase transcription unit, from pMG3 into coll73, which had been digested with BamHI and SmaI to remove the CAT transcription unit.
(§3) Cells were maintained and transfected as previously described in Webb et al., supra. […] F9 cells were seeded at 30% confluence upon 1.5 cm dishes and transfected overnight by calcium phosphate coprecipitation with 5 μg reporter gene, 1 μg actin β-HCG, and 1 μg of HEO, 300 ng each of c-jun and c-fos expression vectors. The cells were glycerol shocked and refed in growth medium containing hormone or ethanolic vehicle.
as §2, with “Luciferase assays were performed as described by Brasier et al. Methods Enzymol 216:386-97 (1992)) on similar extracts that were used for CAT assays.” left out, “determined.” for “determined. Standard deviations were less than 20%.”
In each case, the cells were transfected with different amounts of the human ER expression vector HEO to determine the optimal response.

[9] = test system: human ER at the AP-1 site (collagenase promoter, AP-1-tk), HeLa cells; experiment: CAT assays of HeLa cells transfected with AP-1 site reporter genes and human ER expression vector; assay type: cell-based
Procedure: Representations, at left, show the human collagenase promoter (shaded) and the consensus AP-1 site. […] CAT activity is normalized to a transfection control with the actin promoter driving expression of βHCG. Single representative experiments are shown, error bars represent standard deviation of triplicate hormone treatments.
as §3
as §2, with “Luciferase assays were performed as described by Brasier et al. Methods Enzymol 216:386-97 (1992)) on similar extracts that were used for CAT assays.” left out, “determined.” for “determined. Standard deviations were less than 20%.”
To further examine the effects of antiestrogens on the AP-1 directed pathway, reporter genes derived from the human collagenase promoter were transfected into HeLa cells.

[10] = CEF (fibroblast), no hormone, saturating hormone
[11] = CHO (ovary), no hormone, saturating hormone
[12] = CV-1 (kidney), no hormone, saturating hormone
[13] = F9 (teratocarcinoma), no hormone, unliganded ER gave 3.2
[14] = HELA (cervix), no hormone = 1, ICI 1 μM, tamoxifen 5 μM, estradiol 100 nM
[15] = HEP G2 (liver), no hormone, saturating hormone
[16] = MDA453 (breast), no hormone, saturating hormone
[17] = NIH 3T3 (fibroblast), no hormone, saturating hormone
[18] = SHM (myometrium), no hormone, saturating hormone
[19] = SY5Y (neuroblastoma), no hormone, saturating hormone

Nc1ncc2[nH]cnc2n1 [2-aminopurine]
inhibition of hormone action at AP-1 sites [1]: inhibit hormone action at AP-1 sites | inhibition of the activation of AP-1 activity by HE15 [2]: inhibit

CC/C(=C(\c1ccccc1)c1ccc(OCCN(C)C)cc1)c1ccc(O)cc1 [4′-hydroxytamoxifen]
MCF-7 cell invasion activity of a re-constituted basement membrane [3]: stimulated

Nc1nc2nc[nH]c2c(=S)[nH]1 [6-thioguanine]
inhibition of hormone action at AP-1 sites [1]: inhibit hormone action at AP-1 sites | inhibition of the activation of AP-1 activity by HE15 [2]: inhibit

O=S(=O)(NCCNC/C=C/c1ccc(Br)cc1)c1cccc2cnccc12 [H89]
inhibition of the activation of AP-1 activity by HE15 [2]: did not

CCCCN(C)C(=O)CCCCCCCCCC[C@@H]1Cc2cc(O)ccc2[C@H]2CC[C@]3(C)[C@@H](O)CC[C@H]3[C@H]12 [ICI 164,384]
activity at classical EREs ([4]; range of cell types of Table I (data not shown)): pure antagonist | activation of the collagenase promoter (coll73-CAT) [5]: usually inactive | induction of the collagenase promoter (coll73-LUC) [5]: inductions became detectable | inhibition of the series 4 estrogenic activity [6]: inhibit the estrogenic activity of all the series 4 compounds | expression of ERE-coll60 [7]: neither ICI nor tamoxifen activated | Coll73 Luciferase Activity [8, 10]: 3.2 | Coll73 Luciferase Activity [8, 11]: 1.8 | Coll73 Luciferase Activity [8, 12]: 3.1 | Coll73 Luciferase Activity [8, 13]: 2.4 | Coll73 Luciferase Activity [8, 14]: 3.7 | Coll73 Luciferase Activity [8, 15]: 5.2 | half maximal dose relative to that for estrogen, induction of coll73-LUC [8]: about 10 times | Coll73 Luciferase Activity [8, 16]: 1.1 | Coll73 Luciferase Activity [8, 17]: 3.0 | Coll73 Luciferase Activity [8, 18]: 1.9 | Coll73 Luciferase Activity [8, 19]: 2.3 | activation of transcription, collagenase AP-1 site upstream of the herpes virus tk promoter [9]: able to activate transcription | MCF-7 cell invasion activity of a re-constituted basement membrane [3]: blocked

O=c1c(-c2ccc(O)cc2)coc2cc(O)cc(O)c12 [genistein]
inhibition of hormone action at AP-1 sites [1]: inhibit hormone action at AP-1 sites | inhibition of the activation of AP-1 activity by HE15 [2]: inhibit

CC/C(=C(\c1ccccc1)c1ccc(OCCN(C)C)cc1)c1ccccc1 [tamoxifen]
inductions at classical EREs, % of estrogen ([4]; CEF cells): 30% | inductions at classical EREs, % of estrogen ([4]; CV-1 cells): 30% | inductions of ERE-coll60 activity relative to those obtained with estrogen ([4]; HeLa cells, and most other cases): less than 3% | inductions at classical EREs, % of estrogen ([4]; MDA453 cells): 30% | activation of the collagenase promoter (coll73-CAT) [5]: activated | induction of the collagenase promoter (coll73-LUC) [5]: inductions became larger | activation of the collagenase promoter ([5]; MCF-7 cells, endogenous ER, FIG. 4B): not tamoxifen | activation of the collagenase promoter ([5]; ZR-75-1 cells): The same pattern occurred | expression of ERE-coll60 [7]: neither ICI nor tamoxifen activated | Coll73 Luciferase Activity [8, 10]: 2.2 | Coll73 Luciferase Activity [8, 11]: 2.2 | Coll73 Luciferase Activity [8, 12]: 5.3 | Coll73 Luciferase Activity [8, 13]: 1.1 | Coll73 Luciferase Activity [8, 14]: 7.4 | Coll73 Luciferase Activity [8, 15]: 6.5 | half maximal dose relative to that for estrogen, induction of coll73-LUC [8]: ~100 times | Coll73 Luciferase Activity [8, 16]: 2.1 | Coll73 Luciferase Activity [8, 17]: 3.1 | Coll73 Luciferase Activity [8, 18]: 2.2 | Coll73 Luciferase Activity [8, 19]: 2.1 | activation of transcription, collagenase AP-1 site upstream of the herpes virus tk promoter [9]: able to activate transcription | activation of the collagenase promoter (coll517, coll73) ([9]; transiently expressed human ER, FIG. 2A): more potent an activator than estrogen

calphostin c
inhibition of the activation of AP-1 activity by HE15 [2]: did not
